Laboratory results reported in patent publication US10273221B2, “Microbiocidal heterobicyclic derivatives” (Syngenta Participations AG, priority 2015, dated 2019).

System: Mycosphaerella graminicola (Septoria tritici)
Assay: Mycosphaerella graminicola (Septoria tritici) / liquid culture (Septoria blotch)
Format: cell-based
Conditions: Zymoseptoria tritici, 96 h, growth inhibition determined photometrically 4-5 days after application, vs untreated control, read-out: disease control
In the case of Cc1cccc2c1ncn2C1=NC(C)(C)C(=O)c2cc(Cl)ccc21 [E-34], the inhibition of growth at 200 ppm is reported as at least 80%.
Work on Cc1c(F)ccc2c1ncn2C1=NC(C)(C)C(=O)c2cc(Cl)ccc21 [E-35] yielded an inhibition of growth at 200 ppm of at least 80%.
For Cc1ccc2c(ncn2C2=NC(C)(C)C(=O)c3cc(Cl)ccc32)c1C [E-36], the inhibition of growth at 200 ppm was at least 80%.
In the case of Cc1cccc2c1ncn2C1=NCC2(CCCC2)c2ccccc21 [E-53], the inhibition of growth at 200 ppm is reported as at least 80%.
Cc1cccc2c1ncn2C1=NCC2(CCC2)c2ccccc21 [E-54] gave an inhibition of growth at 200 ppm of at least 80%.
In the case of CC1(C)N=C(n2cnc3c4c(ccc32)CCC4)c2ccccc2C1(F)F [E-55], the inhibition of growth at 200 ppm is reported as at least 80%.
Work on Cc1ccc2c(ncn2C2=NC(C)(C)C(F)(F)c3cc(F)ccc32)c1C [E-56] yielded an inhibition of growth at 200 ppm of at least 80%.

System: Glomerella lagenarium (Colletotrichum lagenarium)
Assay: Glomerella lagenarium (Colletotrichum lagenarium) / liquid culture (anthracnose)
Format: cell-based
Conditions: Colletotrichum orbiculare, growth inhibition measured photometrically 3-4 days after application, vs untreated control, read-out: disease control
For CC1(C)N=C(n2cnc3c(Br)cccc32)c2cccc(F)c2C1(C)C [E-4], the inhibition of growth at 200 ppm was at least 80%.
In the case of CC1(C)N=C(n2cnc3c(F)cccc32)c2cccc(F)c2C1(C)C [E-7], the inhibition of growth at 200 ppm is reported as at least 80%.
Cc1cccc2c1ncn2C1=NC(C)(C)C2(CC2)c2ccccc21 [E-9] showed an inhibition of growth at 200 ppm of at least 80%.
Compound Cc1cccc2c1ncn2C1=NC(C)(C)C(=O)c2ccccc21 [E-10] has an inhibition of growth at 200 ppm of at least 80%.
In the case of Cc1cccc2c1ncn2C1=NCC2(CCC2)c2ccccc21 [E-54], the inhibition of growth at 200 ppm is reported as at least 80%.
Work on CC1(C)N=C(n2cnc3c4c(ccc32)CCC4)c2ccccc2C1(F)F [E-55] yielded an inhibition of growth at 200 ppm of at least 80%.
Cc1ccc2c(ncn2C2=NC(C)(C)C(F)(F)c3cc(F)ccc32)c1C [E-56] showed an inhibition of growth at 200 ppm of at least 80%.

System: Botryotinia fuckeliana (Botrytis cinerea)
Assay: Botryotinia fuckeliana (Botrytis cinerea) / liquid culture (gray mould)
Format: cell-based
Conditions: growth inhibition determined photometrically 3-4 days after application, vs untreated control, read-out: disease control
In the case of CC1(C)N=C(n2cnc3c(Br)cccc32)c2cccc(F)c2C1(C)C [E-4], the inhibition of growth at 200 ppm is reported as at least 80%.
With CC1(C)N=C(n2cnc3c(F)cccc32)c2cccc(F)c2C1(C)C [E-7] the inhibition of growth at 200 ppm was at least 80%.
Cc1cccc2c1ncn2C1=NC(C)(C)C2(CC2)c2ccccc21 [E-9] showed an inhibition of growth at 200 ppm of at least 80%.
Cc1cccc2c1ncn2C1=NC(C)(C)C(=O)c2ccccc21 [E-10] gave an inhibition of growth at 200 ppm of at least 80%.
For Cc1cccc2c1ncn2C1=NC(C)(C)C(=O)c2cc(Cl)ccc21 [E-34], the inhibition of growth at 200 ppm was at least 80%.
In the case of Cc1c(F)ccc2c1ncn2C1=NC(C)(C)C(=O)c2cc(Cl)ccc21 [E-35], the inhibition of growth at 200 ppm is reported as at least 80%.
Cc1ccc2c(ncn2C2=NC(C)(C)C(=O)c3cc(Cl)ccc32)c1C [E-36] gave an inhibition of growth at 200 ppm of at least 80%.
Cc1cccc2c1ncn2C1=NCC2(CCCC2)c2ccccc21 [E-53] showed an inhibition of growth at 200 ppm of at least 80%.
Compound Cc1cccc2c1ncn2C1=NCC2(CCC2)c2ccccc21 [E-54] has an inhibition of growth at 200 ppm of at least 80%.
Compound CC1(C)N=C(n2cnc3c4c(ccc32)CCC4)c2ccccc2C1(F)F [E-55] has an inhibition of growth at 200 ppm of at least 80%.
With Cc1ccc2c(ncn2C2=NC(C)(C)C(F)(F)c3cc(F)ccc32)c1C [E-56] the inhibition of growth at 200 ppm was at least 80%.

System: not given
Assay: not given
Conditions: not given
Compound CC1(C)N=C(n2cnc3c(Br)cccc32)c2cccc(F)c2C1(C)C [E-4] has a melting point of 48 to 49 °C.
Compound Cc1cccc2c1ncn2C1=NC(C)(C)C(=O)c2ccccc21 [E-10] has a melting point of 123 to 125 °C.
In the case of Cc1cccc2c1ncn2C1=NC(C)(C)C(=O)c2cc(Cl)ccc21 [E-34], the melting point is reported as 129 to 133 °C.
Cc1c(F)ccc2c1ncn2C1=NC(C)(C)C(=O)c2cc(Cl)ccc21 [E-35] gave a melting point of 133 to 136 °C.
Compound Cc1ccc2c(ncn2C2=NC(C)(C)C(=O)c3cc(Cl)ccc32)c1C [E-36] has a melting point of 196 to 199 °C.

System: Sclerotinia sclerotiorum
Assay: Sclerotinia sclerotiorum / liquid culture (cottony rot)
Conditions: 72 h, read-out: control of Sclerotinia sclerotiorum
Experimental: Sclerotinia sclerotiorum/Liquid Culture (Cottony Rot)
Mycelia fragments of a newly grown liquid culture of the fungus are directly mixed into nutrient broth (Vogels broth). After placing a (DMSO) solution of test compound into a microtiter plate (96-well format) the nutrient broth containing the fungal material is added. The test plates are incubated at 24° C. and the inhibition of growth is determined photometrically 3-4 days after application.
Work on CC1(C)N=C(n2cnc3c4c(ccc32)CCC4)c2ccccc2C1(F)F [E-55] yielded an inhibition of growth at 20 ppm of at least 80%.
With Cc1ccc2c(ncn2C2=NC(C)(C)C(F)(F)c3cc(F)ccc32)c1C [E-56] the inhibition of growth at 20 ppm was at least 80%.

System: Gaeumannomyces graminis
Assay: Gaeumannomyces graminis / liquid culture (take-all of cereals)
Format: cell-based
Conditions: growth inhibition determined photometrically 4-5 days after application, vs untreated control, read-out: disease control
CC1(C)N=C(n2cnc3c(Br)cccc32)c2cccc(F)c2C1(C)C [E-4] showed an inhibition of growth at 200 ppm of at least 80%.
In the case of CC1(C)N=C(n2cnc3c(F)cccc32)c2cccc(F)c2C1(C)C [E-7], the inhibition of growth at 200 ppm is reported as at least 80%.
For Cc1cccc2c1ncn2C1=NC(C)(C)C2(CC2)c2ccccc21 [E-9], the inhibition of growth at 200 ppm was at least 80%.

System: Magnaporthe grisea (Pyricularia oryzae)
Assay: microbe, parasite or virus in culture
Format: cell-based
Conditions: 72 h, read-out: control of Magnaporthe grisea
For CC1(C)N=C(n2cnc3c(Br)cccc32)c2cccc(F)c2C1(C)C [E-4], the inhibition of growth at 20 ppm was at least 80%.
CC1(C)N=C(n2cnc3c(F)cccc32)c2cccc(F)c2C1(C)C [E-7] gave an inhibition of growth at 20 ppm of at least 80%.
In the case of Cc1cccc2c1ncn2C1=NC(C)(C)C2(CC2)c2ccccc21 [E-9], the inhibition of growth at 20 ppm is reported as at least 80%.
For Cc1cccc2c1ncn2C1=NC(C)(C)C(=O)c2ccccc21 [E-10], the inhibition of growth at 20 ppm was at least 80%.
Compound Cc1cccc2c1ncn2C1=NC(C)(C)C(=O)c2cc(Cl)ccc21 [E-34] has an inhibition of growth at 20 ppm of at least 80%.
In the case of Cc1c(F)ccc2c1ncn2C1=NC(C)(C)C(=O)c2cc(Cl)ccc21 [E-35], the inhibition of growth at 20 ppm is reported as at least 80%.
Cc1ccc2c(ncn2C2=NC(C)(C)C(=O)c3cc(Cl)ccc32)c1C [E-36] gave an inhibition of growth at 20 ppm of at least 80%.
For Cc1cccc2c1ncn2C1=NCC2(CCCC2)c2ccccc21 [E-53], the inhibition of growth at 20 ppm was at least 80%.
In the case of Cc1cccc2c1ncn2C1=NCC2(CCC2)c2ccccc21 [E-54], the inhibition of growth at 20 ppm is reported as at least 80%.
CC1(C)N=C(n2cnc3c4c(ccc32)CCC4)c2ccccc2C1(F)F [E-55] gave an inhibition of growth at 20 ppm of at least 80%.
Compound Cc1ccc2c(ncn2C2=NC(C)(C)C(F)(F)c3cc(F)ccc32)c1C [E-56] has an inhibition of growth at 20 ppm of at least 80%.

System: Fusarium culmorum
Assay: microbe, parasite or virus in culture
Format: cell-based
Conditions: 72 h, read-out: disease control
Work on CC1(C)N=C(n2cnc3c(Br)cccc32)c2cccc(F)c2C1(C)C [E-4] yielded an inhibition of growth at 200 ppm of at least 80%.
Compound CC1(C)N=C(n2cnc3c(F)cccc32)c2cccc(F)c2C1(C)C [E-7] has an inhibition of growth at 200 ppm of at least 80%.
Work on Cc1cccc2c1ncn2C1=NC(C)(C)C2(CC2)c2ccccc21 [E-9] yielded an inhibition of growth at 200 ppm of at least 80%.
With Cc1cccc2c1ncn2C1=NC(C)(C)C(=O)c2cc(Cl)ccc21 [E-34] the inhibition of growth at 200 ppm was at least 80%.
For Cc1c(F)ccc2c1ncn2C1=NC(C)(C)C(=O)c2cc(Cl)ccc21 [E-35], the inhibition of growth at 200 ppm was at least 80%.
With Cc1ccc2c(ncn2C2=NC(C)(C)C(=O)c3cc(Cl)ccc32)c1C [E-36] the inhibition of growth at 200 ppm was at least 80%.
For CC1(C)N=C(n2cnc3c4c(ccc32)CCC4)c2ccccc2C1(F)F [E-55], the inhibition of growth at 200 ppm was at least 80%.
In the case of Cc1ccc2c(ncn2C2=NC(C)(C)C(F)(F)c3cc(F)ccc32)c1C [E-56], the inhibition of growth at 200 ppm is reported as at least 80%.

System: Pyrenophora teres
Assay: Pyrenophora teres / liquid culture (net blotch)
Format: cell-based
Conditions: growth inhibition determined photometrically 3-4 days after application, vs untreated control
Work on CC1(C)N=C(n2cnc3c(Br)cccc32)c2cccc(F)c2C1(C)C [E-4] yielded an inhibition of growth at 20 ppm of at least 80%.
For CC1(C)N=C(n2cnc3c(F)cccc32)c2cccc(F)c2C1(C)C [E-7], the inhibition of growth at 20 ppm was at least 80%.
With Cc1cccc2c1ncn2C1=NC(C)(C)C2(CC2)c2ccccc21 [E-9] the inhibition of growth at 20 ppm was at least 80%.
Work on Cc1cccc2c1ncn2C1=NC(C)(C)C(=O)c2ccccc21 [E-10] yielded an inhibition of growth at 20 ppm of at least 80%.

System: Monographella nivalis (Microdochium nivale)
Assay: Monographella nivalis (Microdochium nivale) / liquid culture (foot rot cereals)
Format: cell-based
Conditions: 96 h, growth inhibition determined photometrically 4-5 days after application, vs untreated control, read-out: disease control
CC1(C)N=C(n2cnc3c(Br)cccc32)c2cccc(F)c2C1(C)C [E-4] showed an inhibition of growth at 200 ppm of at least 80%.
Work on CC1(C)N=C(n2cnc3c(F)cccc32)c2cccc(F)c2C1(C)C [E-7] yielded an inhibition of growth at 200 ppm of at least 80%.
Cc1cccc2c1ncn2C1=NC(C)(C)C2(CC2)c2ccccc21 [E-9] gave an inhibition of growth at 200 ppm of at least 80%.
Compound Cc1cccc2c1ncn2C1=NC(C)(C)C(=O)c2ccccc21 [E-10] has an inhibition of growth at 200 ppm of at least 80%.
Cc1cccc2c1ncn2C1=NC(C)(C)C(=O)c2cc(Cl)ccc21 [E-34] showed an inhibition of growth at 200 ppm of at least 80%.
Compound Cc1cccc2c1ncn2C1=NCC2(CCCC2)c2ccccc21 [E-53] has an inhibition of growth at 200 ppm of at least 80%.
Cc1cccc2c1ncn2C1=NCC2(CCC2)c2ccccc21 [E-54] gave an inhibition of growth at 200 ppm of at least 80%.
CC1(C)N=C(n2cnc3c4c(ccc32)CCC4)c2ccccc2C1(F)F [E-55] gave an inhibition of growth at 200 ppm of at least 80%.
Compound Cc1ccc2c(ncn2C2=NC(C)(C)C(F)(F)c3cc(F)ccc32)c1C [E-56] has an inhibition of growth at 200 ppm of at least 80%.
